Measured values published in US10512700B2, “Radiohalide-labeled targeted diagnostics and therapeutics” (Memorial Sloan Kettering Cancer Center, priority 2014, dated 2019).
Where “and” joins values, the source holds several entries; their conditions need not be identical. Identical values can stand only once.

Test system: U87 MG tumor bearing mice
Test: Biodistribution
Format: in vivo, mouse
Conditions: i.v.
Procedure: Biodistribution experiments were conducted on female nude mice (8-10 weeks old and 20-25 g in weight, n=21) bearing U87 MG subcutaneous xenografts. The radiolabeled preparation (20-30 μCi of compound C-2d (^131I) in 200 μL of a solution 90% PBS 10% PEG300) was administrated via the lateral tail vein. To determine a suitable specific activity (to achieve a sufficiently high tumor to organ ratio), several specific activities were tested (5 mCi/μmol, 50 mCi/μmol, 250 mCi/μmol) in mice bearing U87 MG tumors. The compound was allowed to circulate for 2 h post injection at which time mice were sacrificed and organs were harvested (n=3). The radioactive content in tissue of interest (blood, tumor, muscle, bone, liver, spleen, kidney, heart, lung, pancreas, brain, skin, small intestine, large intestine, stomach, tail, thyroid and feces) was measured on a Wizard 2470 Automatic Gamma Counter, and the tissue-associated activity was calculated as the mean % ID/g using the following formula: [(activity in the target organ/grams of tissue)/injected dose]×100%.
After determining the optimal specific activity (of the three tested), a suitable time window for imaging was determined by testing the compound distribution in nude mice bearing U87 MG tumors at different time points. The compound was allowed to circulate for various times (1, 2, and 6 h), after which the mice were sacrificed (n=3).

[1] = 50 mCi/μmol, 2 h post injection
[2] = 250 mCi/μmol, 2 h post injection

## O=C(c1ccc([131I])cc1)N1CCN(C(=O)c2cc(Cc3n[nH]c(=O)c4ccccc34)ccc2F)CC1 [C-2d (^131I)]
5 mCi/μmol, 2 h post injection
  % ID/g, Blood: 5.88 % ID/g
  % ID/g, Bone: 0.14 % ID/g
  % ID/g, Brain: 0.02 % ID/g
  % ID/g, Feces: 6.23 % ID/g
  % ID/g, Heart: 0.26 % ID/g
  % ID/g, Kidneys: 1.08 % ID/g
  % ID/g, Large intestine: 5.43 % ID/g
  % ID/g, Liver: 3.14 % ID/g
  % ID/g, Lung: 0.55 % ID/g
  % ID/g, Muscle: 0.27 % ID/g
  % ID/g, Pancreas: 0.67 % ID/g
  % ID/g, Skin: 0.26 % ID/g
  % ID/g, Small intestine: 14.16 % ID/g
  % ID/g, Spleen: 0.60 % ID/g
  % ID/g, Stomach: 5.86 % ID/g
  % ID/g, Tail: 2.31 % ID/g
  % ID/g, Thyroid: 0.37 % ID/g
  % ID/g, Tumor: 0.32 % ID/g
[1]
  % ID/g, Blood: 0.90 % ID/g
  % ID/g, Bone: 0.04 % ID/g
  % ID/g, Brain: 0.007 % ID/g
  % ID/g, Feces: 3.75 % ID/g
  % ID/g, Heart: 0.10 % ID/g
  % ID/g, Kidneys: 0.35 % ID/g
  % ID/g, Large intestine: 0.94 % ID/g
  % ID/g, Liver: 1.02 % ID/g
  % ID/g, Lung: 0.28 % ID/g
  % ID/g, Muscle: 0.04 % ID/g
  % ID/g, Pancreas: 0.42 % ID/g
  % ID/g, Skin: 0.092 % ID/g
  % ID/g, Small intestine: 7.17 % ID/g
  % ID/g, Spleen: 0.15 % ID/g
  % ID/g, Stomach: 1.90 % ID/g
  % ID/g, Tail: 0.45 % ID/g
  % ID/g, Thyroid: 0.14 % ID/g
  % ID/g, Tumor: 0.17 % ID/g
[2]
  % ID/g, Blood: 4.78 % ID/g
  % ID/g, Bone: 0.09 % ID/g
  % ID/g, Brain: 0.06 % ID/g
  % ID/g, Feces: 67.25 % ID/g
  % ID/g, Heart: 0.16 % ID/g
  % ID/g, Kidneys: 0.58 % ID/g
  % ID/g, Large intestine: 17.29 % ID/g
  % ID/g, Liver: 2.17 % ID/g
  % ID/g, Lung: 0.43 % ID/g
  % ID/g, Muscle: 0.074 % ID/g
  % ID/g, Pancreas: 0.27 % ID/g
  % ID/g, Skin: 0.14 % ID/g
  % ID/g, Small intestine: 7.55 % ID/g
  % ID/g, Spleen: 0.43 % ID/g
  % ID/g, Stomach: 1.25 % ID/g
  % ID/g, Tail: 0.58 % ID/g
  % ID/g, Thyroid: 0.20 % ID/g
  % ID/g, Tumor: 0.18 % ID/g
1 h post injection
  % ID/g, Blood: 2.76 % ID/g
  % ID/g, Bone: 0.19 % ID/g
  % ID/g, Brain: 0.034 % ID/g
  % ID/g, Feces: 7.31 % ID/g
  % ID/g, Heart: 0.39 % ID/g
  % ID/g, Kidneys: 1.60 % ID/g
  % ID/g, Large intestine: 1.49 % ID/g
  % ID/g, Liver: 4.61 % ID/g
  % ID/g, Lung: 0.71 % ID/g
  % ID/g, Muscle: 0.27 % ID/g
  % ID/g, Pancreas: 0.74 % ID/g
  % ID/g, Skin: 0.46 % ID/g
  % ID/g, Small intestine: 13.70 % ID/g
  % ID/g, Spleen: 0.64 % ID/g
  % ID/g, Stomach: 1.88 % ID/g
  % ID/g, Tail: 1.00 % ID/g
  % ID/g, Thyroid: 0.56 % ID/g
  % ID/g, Tumor: 0.50 % ID/g
2 h post injection
  % ID/g, Blood: 0.90 % ID/g
  % ID/g, Bone: 0.044 % ID/g
  % ID/g, Brain: 0.007±0.002 % ID/g and 0.007 % ID/g
  % ID/g, Feces: 3.75 % ID/g
  % ID/g, Heart: 0.10 % ID/g
  % ID/g, Kidneys: 0.35 % ID/g
  % ID/g, Large intestine: 0.94 % ID/g
  % ID/g, Liver: 1.02 % ID/g
  % ID/g, Lung: 0.28 % ID/g
  % ID/g, Muscle: 0.04±0.02 % ID/g and 0.039 % ID/g
  % ID/g, Pancreas: 0.42 % ID/g
  % ID/g, Skin: 0.091 % ID/g
  % ID/g, Small intestine: 7.16 % ID/g
  % ID/g, Spleen: 0.15 % ID/g
  % ID/g, Stomach: 1.90 % ID/g
  % ID/g, Tail: 0.45 % ID/g
  % ID/g, Thyroid: 0.14 % ID/g
  % ID/g, Tumor: 0.17±0.06 % ID/g and 0.17 % ID/g
6 h post injection
  % ID/g, Blood: 0.34 % ID/g
  % ID/g, Bone: 0.035 % ID/g
  % ID/g, Brain: 0.008 % ID/g
  % ID/g, Feces: 70.67 % ID/g
  % ID/g, Heart: 0.075 % ID/g
  % ID/g, Kidneys: 0.24 % ID/g
  % ID/g, Large intestine: 1.33 % ID/g
  % ID/g, Liver: 0.65 % ID/g
  % ID/g, Lung: 0.12 % ID/g
  % ID/g, Muscle: 0.023 % ID/g
  % ID/g, Pancreas: 0.084 % ID/g
  % ID/g, Skin: 0.072 % ID/g
  % ID/g, Small intestine: 1.13 % ID/g
  % ID/g, Spleen: 0.060 % ID/g
  % ID/g, Stomach: 0.81 % ID/g
  % ID/g, Tail: 0.31 % ID/g
  % ID/g, Thyroid: 0.098 % ID/g
  % ID/g, Tumor: 0.13 % ID/g
